{
  "source": "patent US11273217B2",
  "about": "“Cancer treatment composition combining anti-CD26 antibody and other anticancer agent” (Y's AC Co., Ltd., priority 2015, dated 2022)",
  "key": {"HCC827 cells": {"system": "HCC827 cells", "assay": "In vivo growth of CD26-positive lung cancer cell line HCC827 in SCID mice (tumor weight)", "settings": "days 1 and 4, day 7", "description": "HCC827 cells (1.8×10^5 cells/animal) were subcutaneously transplanted to the backs of female SCID mice. The day of transplantation was defined as day 0. At day 1, YS110 (10 mg/kg) alone, cisplatin (0.5 mg/kg)+pemetrexed (50 mg/kg), or YS110 (10 mg/kg)+cisplatin (0.5 mg/kg)+pemetrexed (50 mg/kg) was intraperitoneally administered to the mice. At day 4, the same amount of the same drug was administered by the same method as in day 1 (n=6). At day 7, their tumors were excised, and the tumor weights were measured. Significant difference was tested by two-tailed t-test (vs Cont).\nHCC827 cells (0.9×10^5 cells/animal) were subcutaneously transplanted to the backs of female SCID mice. The day of transplantation was defined as day 0. YS110 (10 mg/kg, intraperitoneal administration), gefitinib (100 mg/kg, oral administration), or YS110 (10 mg/kg, intraperitoneal administration)+gefitinib (100 mg/kg, oral administration) was administered to the mice twice (days 1 and 4). At day 7, their tumors were excised, and the tumor weights were measured. Significant difference was tested by two-tailed t-test (vs Cont)."}, "H226": {"system": "H226", "assay": "In vivo growth of epithelioid mesothelioma cell H226 in SCID mice (tumor weight)", "settings": "YS110 10 mg/kg, gemcitabine 20 mg/kg, intraperitoneal, days 2 and 4; day 7", "description": "H226 (3.8×10^5 cells/animal) was subcutaneously transplanted to the backs of female SCID mice. The day of transplantation was defined as day 0. YS110 (10 mg/kg), gemcitabine (20 mg/kg), or YS110 (10 mg/kg)+gemcitabine (20 mg/kg) was intraperitoneally administered to the mice twice (days 2 and 4) (n=6). At day 7, their tumors were excised, and the tumor weights were measured. Significant difference was tested by two-tailed t-test (vs Cont). The interaction between YS110 and gemcitabine used concomitantly was analyzed by two-way ANOVA."}, "H2452 cells [1]": {"system": "H2452 cells", "assay": "MTT cell growth assay, H2452", "assay_type": "cell-based", "settings": "day 2", "description": "MESO1 or H2452 cells (2×10^3 cells/well) were inoculated to a 96-well plate. One hour later, cisplatin or pemetrexed was added thereto at 10^−9, 10^−8, 10^−7, 10^−6, 10^−5, or 10^−4 M (n=6). At day 2, MTT assay was conducted.\nH2452 cells (2×10^3 cells/well) were inoculated to a 96-well plate. One hour later, the combination of 0.03, 0.3, or 1 μM cisplatin and 0.1, 3, or 10 μg/ml YS110, or the combination of 0.01, 0.1, or 0.3 μM pemetrexed and 0.1, 3, or 10 μg/ml YS110 was added thereto (n=6). At day 2, MTT assay was conducted. Significant difference was tested by two-tailed t-test (vs Cont).\nMESO1 cells (2×10^3 cells/well) or H2452 cells (2×10^3 cells/well) were inoculated to a 96-well plate. One hour later, 0.3 μM cisplatin-0.1 μM pemetrexed combination, or YS110 (10 μg/ml) plus the 0.3 μM cisplatin-0.1 μM pemetrexed combination was added thereto (n=6). At day 2, MTT assay was conducted. Significant difference was tested by two-tailed t-test (vs Cont).\n(§1) Gemcitabine was studied for its effect on the growth of a mesothelioma cell line. A mesothelioma cell line MESO1, JMN, H2452, or H226 (2×10^3 cells/well) was inoculated to a 96-well plate. One hour later, gemcitabine (10^−9, 10^−8, 10^−7, 10^−6, 10^−5, or 10^−4 M) was added thereto (N=6). 2 days later, MTT assay was conducted. Significant difference was tested by two-tailed t-test (vs Cont).\n(§2) H2452 cells (2×10^3 cells/well) were inoculated to a 96-well plate. One hour later, gemcitabine (0, 10^−8, 3×10^−8, or 10^−7 M) and YS110 (0, 1, 3, or 10 μg/ml) were added thereto in combination. At day 2, MTT assay was conducted. Significant difference was tested by two-tailed t-test (vs Cont). Next, interaction in concomitant use of medications was studied (n=6). The interaction between YS110 and gemcitabine used concomitantly was analyzed by two-way ANOVA.\n(§3) MESO1, JMN, H2452 or H226 cells (2×10^3 cells/well were inoculated to a 96-well plate. One hour later, 3×10^−8 M or 10^−7 M gemcitabine was added thereto by concomitant use with the combination of cisplatin (0, 0.1, 0.3, or 1 μM) and pemetrexed (0, 0.03, 0.1, or 0.3 μM) (n=6). At day 2, MTT assay was conducted.\n(§4) The growth inhibitory effect of gemcitabine (10^−9 to 10^−4 M) was compared using MESO1, H2452, JMN, and H226 cell lines."}, "H226 cells": {"system": "H226 cells", "assay": "MTT cell growth assay, H226", "assay_type": "cell-based", "settings": "gemcitabine 10^−8, 3×10^−8, or 10^−7 M and YS110 1, 3, or 10 μg/ml; day 2", "description": "as §1\nas §2, with “H226” for “H2452”\nas §3, §4"}, "H2452 cells [2]": {"system": "H2452 cells", "assay": "In vivo H2452 cell growth in SCID mice (tumor weight)", "settings": "YS110 10 mg/kg, cisplatin 0.5 mg/kg, pemetrexed 50 mg/kg, intraperitoneal, days 1 and 4; tumor weight day 7", "description": "H2452 cells (3×10^5 cells/animal) were subcutaneously transplanted to the backs of female SCID mice. The day of transplantation was defined as day 0. YS110 (10 mg/kg) alone, cisplatin (0.5 mg/kg)-pemetrexed (50 mg/kg) used concomitantly, or YS110 (10 mg/kg) used concomitantly with the cisplatin-pemetrexed concomitant use was intraperitoneally administered to the mice twice (days 1 and 4). At day 7, their tumors were excised, and the tumor weights were measured. Significant difference was tested by two-tailed t-test (vs Cont)."}},
  "data": [
    {"substance": "YS110: humanized anti-CD26 antibody designed based on anti-CD26 mouse antibody 14D10; SEQ ID NO: 17 and 18", "values": [
      {"measurement": "effect of YS110 on the effect of gefitinib (tumor weight)", "setting": "HCC827 cells; YS110 10 mg/kg intraperitoneal, gefitinib 100 mg/kg oral", "result": "potentiated"},
      {"measurement": "effect of YS110 on the effect of cisplatin-pemetrexed (tumor weight)", "setting": "HCC827 cells; YS110 10 mg/kg, cisplatin 0.5 mg/kg, pemetrexed 50 mg/kg, intraperitoneal", "result": "potentiated"},
      {"measurement": "inhibitory effect (tumor weight)", "setting": "H226", "result": 34, "unit": "%"},
      {"measurement": "effect of YS110 on the cell growth inhibitory effect of pemetrexed", "setting": "H2452 cells [1]; 0.01, 0.1, or 0.3 μM pemetrexed and 0.1, 3, or 10 μg/ml YS110", "result": "potentiated"},
      {"measurement": "effect of YS110 on the cell growth inhibitory effect of cisplatin", "setting": "H2452 cells [1]; 0.03, 0.3, or 1 μM cisplatin and 0.1, 3, or 10 μg/ml YS110", "result": "potentiated"},
      {"measurement": "effect of YS110 on the cell growth inhibitory effect of cisplatin-pemetrexed", "setting": "H2452 cells [1]; YS110 10 μg/ml plus 0.3 μM cisplatin-0.1 μM pemetrexed", "result": "potentiated"},
      {"measurement": "effect of YS110 on the growth inhibitory effect of gemcitabine", "setting": "H2452 cells [1]; gemcitabine 10^−8, 3×10^−8, or 10^−7 M and YS110 1, 3, or 10 μg/ml", "result": "potentiated"},
      {"measurement": "effect of YS110 on the growth inhibitory effect of gemcitabine", "setting": "H226 cells", "result": "potentiated"},
      {"measurement": "effect of YS110 on the in vivo tumor growth inhibitory effect of cisplatin-pemetrexed", "setting": "H2452 cells [2]", "result": "potentiated"}
    ]}
  ]
}
